Here are results for two molecules from article PMC5317004 (Scientific Reports, 2017).

In assay [1] the target is chimeric α7-GluClβR (Gallus gallus / Caenorhabditis elegans, UniProt P22770, M226I/T225I). The experiment in a line: ACh dose-response, whole-cell patch clamp in CHO cells expressing the chimeric receptor. The format is cell-based, chick nAChR α7 / C. elegans GluClβ. The conditions noted are these: −60 mV.
The subject of assay [2] is chimeric α7-GluClβR. The experiment in a line: IVM added after activation by ACh: kinetics and extent of current decline (whole-cell patch clamp). The format is cell-based, chick nAChR α7 / C. elegans GluClβ. As to the method:
Following a further wash (for a minute), the same cell was challenged again with a 5-μM-IVM solution (in 0.01% DMSO; red bar, arrow and trace). Recordings were performed at −60 mV. (B) Time constant of current decline (τd). Values of τd were determined by exponential fits to the declining phase of the currents using Eq. 3. […] Error bars correspond to SEM of N = 6 and N = 5 cells for recordings at −60 mV and −20 mV, respectively. Paired, two-tailed Student’s t-tests indicate that for not significant (“ns”) P > 0.3, and ** 0.001 < P < 0.005.
Figure 8 The inhibition of ACh-elicited currents by addition of IVM is irreversible. […] (B) Representative currents for the same experiment as in A, but with the exception of IVM (0.5 μM) addition after the ACh-elicited current reached to its peak (IP1). Inset, magnification of the indicated segment of the current trace. In both panels A and B, black bars above the current traces indicate ACh or IVM applications. […] Error bars correspond to SEM. Unpaired, two-tailed Student’s t-tests indicate *** P < 0.0001.
The declining phase of the currents was fitted with an exponential time course to give the time constant of current decline by using equation 3, […]
I is the current, IP is the peak of the current, IS is the steady state current, t is the time, and τ is the time constant of current decline. […]
Supplementary Materials and Methods
The structural mo del of the chi meric α7-GluClβR was built based on th e methodologies published previously1,2, and the sequence of the chimeric subunit is presented in […]
DNA construct and preparation of cells for electrophysiological experiments The cDNA encoding the α7-GluClβ chimeric subunit was generated as described previously3, and was cloned into a pcDNA3.1 vector.
Chinese hamster ovary cells (CHO-K1, ATCC via Biological Industries Israel, Beit Haemek Ltd.) were cultured as performed previously2 in Dulbecco 's Modified E agle Med iu m (DMEM) containing 10% fetal calf serum (Biological Industries Israel Beit Haemek Ltd.), 2 mM glutamax, 100 Units/ml penicillin G and 100 μg/ml streptomycin, and grown in 5% CO2 at 37°C under 90-95% hu midity . CHO cells were seeded on glass coverslips (13-mm diameter) placed in a 24-multiwell plate. For the expression of the α7-GluClβR, cells were transiently transfected with the pcDNA3.1 plasmid containing the receptor’s ORF (200-600 ng per well) using transit-LT1 transfection reagent (Mirus, USA), according to the manufacturer’s protocol. pIRES-CD8 plas mid (200 ng per well) was also added to enable visualization of the ex pressing cells by beads coated with anti-CD8 antibodies (Invitrogen). For the expression of GluClβ ho mo mers, we used the pcDNA3.1 plas mid containing the GluClβ-subunit ORF (600-1000 ng per well), pIRES-CD8 plas mid (200 ng per well) and th e X-tremeGENE HP DNA Transfection Reagent (Roche Life Science). Recordings were performed 48-72 hours following transfection.
Whole-cell patch clamp recordings
Recordings were performed in the aforementioned CHO cells, as previously described1,2. Whole-cell patch clamp experiments were performed with normal external solution (NES) contained (in millimolar): 140 NaCl, 2.8 KCl, 2 CaCl2, 2 MgCl2, 10 glucose and 10 HEPES, adjusted to pH 7.35 with NaOH (310 mOsM). The pipette solution contained […]
(in millimolar): 130 KCl, 4 MgCl2, 4 Na2ATP, 1 EGTA and 10 HEPES, adjusted to pH 7.35 with KOH (290 mOsM). The osmolarity of these solutions was maintained by adding sucrose.
The electrode resistance was 6-10 MΩ when filled with the pipette solution. External solutions were applied onto the cell by using the VC-77SP fast-step system (Warner Instruments, CT, USA) combined with N2 pressure of 3-4 psi to produce laminar flow of the external solution onto the patched cell. All measurements were performed at 25 °C. The currents w ere measured with an Axopatch 200B patch-clamp amplifier (Molecular Devices, Sunnyvale, CA) and a Digidata 1440A interface (Molecular Devices). […]
For orientation: The patch-clamp technique gives a direct electrical read-out from membranes.

Assay [3] concerns T1, homomeric GluClβR.
T1 construct: homomeric receptors assembled from the full-length C. elegans GluClβ subunit; expressed in transfected cells; host or cells: CHO-K1 cells, transient transfection, pcDNA3.1
The experiment in a line: Effect of IVM on Glu-elicited currents of homomeric GluClβ receptors in CHO cells (whole-cell patch clamp). The format is cell-based, C. elegans. The conditions noted are these: 100 mM Glu, four cells, mean ± SEM. The procedure:
Figure 9 Effect of IVM on homomeric GluClβ receptors. (A) Representative current traces obtained by the indicated application protocol. Glu (100 mM) was applied for either 350 ms to obtain peak IP0 at −60 mV, or 600 ms to obtain peaks IP1, IP2 and IP3 at +60 mV. Note that the responses at both membrane voltages, −60 and +60 mV, start to desensitize appreciably before the end of Glu application. IVM (2 μM) was applied for 10 seconds. Asterisk indicates a 25-sec-long wash between the second and third Glu applications. (B) Current-voltage (I/V) relations obtained in a different cell than in A upon the application of Glu (100 mM) over a voltage ramp lasting 200 ms. […] Current ratios were extracted from experiments performed as shown in (A). Mean ± SEM of four cells are presented. Paired, two-tailed Student’s t-tests indicate that **0.001 < P < 0.01 and ***P < 0.0002.
Supplementary Information
Trapping of ivermectin by a pentameric ligand-gated ion channel upon open-to-cl ose d i someri zati on N. Degani-Katzav, M. Klein, M. Har-Even, R. Gortler, R. Tobi and Y. Paas*
Supplementary Materials and Methods […]
The electrode resistance was 6-10 MΩ when filled with the pipette solution. […] The currents w ere measured with an Axopatch 200B patch-clamp amplifier (Molecular Devices, Sunnyvale, CA) and a Digidata 1440A interface (Molecular Devices). […]

The test system of assay [4] is homomeric GluClβR. Set-up: method as in PMID 7935817. The conditions noted are these: Xenopus oocytes; read-out: Glu EC50; cited from earlier work.

Chain of chimeric α7-GluClβR (Gallus gallus / Caenorhabditis elegans, UniProt P22770, M226I/T225I) (P22770 24-230 T225I/M226I): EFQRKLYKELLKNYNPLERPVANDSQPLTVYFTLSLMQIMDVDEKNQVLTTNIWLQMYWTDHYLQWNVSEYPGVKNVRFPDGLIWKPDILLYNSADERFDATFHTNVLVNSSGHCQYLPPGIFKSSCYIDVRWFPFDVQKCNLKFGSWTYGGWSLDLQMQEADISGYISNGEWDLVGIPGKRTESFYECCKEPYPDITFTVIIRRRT
Chain of chimeric α7-GluClβR (Gallus gallus / Caenorhabditis elegans, UniProt P22770, M226I/T225I) (Q17328 245-434, further chain): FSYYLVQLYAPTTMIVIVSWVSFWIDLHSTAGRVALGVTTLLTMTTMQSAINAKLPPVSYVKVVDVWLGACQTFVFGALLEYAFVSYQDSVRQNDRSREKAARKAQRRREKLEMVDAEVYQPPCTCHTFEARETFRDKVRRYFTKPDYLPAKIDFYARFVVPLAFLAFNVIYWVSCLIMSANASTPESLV

As to `CC(=O)OCC[N+](C)(C)C` [ACh, acetylcholine], the “Hill coefficient (ACh dose-response)” value in assay [1] is given as 2.55 ± 0.3. In addition, the “current remaining at end of initial application, percent IS/IP1” value in assay [2] (30 μM ACh alone for 9.6 sec, N = 10) worked out at 35 ± 4%. Also, the “τd1, time constant of current decline” value in assay [2] (30 μM ACh alone, 9.6 sec, N = 10) was found to be 4268 ± 224 ms. Also, the “current remaining at end of application, percent of the peak amplitude” value in assay [2] (350 μM ACh alone for 5.5 sec, N = 5) stood at 31 ± 8.6%. The “time between the start of application and the onset of effect” value in assay [2] (six experiments as in Fig. 5A, 350 μM ACh, 5 μM IVM) is 67 ± 7 milliseconds.

As for `N[C@@H](CCC(=O)O)C(=O)O` [Glu, glutamate], the “I+60mV/I−60mV of Glu-elicited responses” value in assay [3] is recorded as 2.8 ± 0.2. Besides, the EC50 in assay [4] was 380 µM.

What is called EC50 is the concentration that produces a half-maximal response.
